These results are taken from US11974552B2, “Transgenic C57BL6-BTBR mouse with a humanized MHC II gene that expresses GAD65” (The University of Toledo, priority 2018, dated 2024).

In the experiment the test system is pancreatic lymph nodes (PLN) CD4 and CD8 T cells of humanized T1D mice. The experiment can be described thus: In-vitro CFSE proliferation assay of pancreatic lymph node T cells stimulated with rGAD65. The format is cell-based. To be noted: pulse stimulation 4 ug/ml for 4 days; PLN single cell suspension of diabetic mouse; CFSE tracking. On the procedure: FIG. 6C: rGAD65 induced proliferation of CD4 and CD8 cells, pancreatic lymph nodes (PLN) were isolated from humanized T1D mice and were stimulated with GAD65 (4 μg/ml) for 4 days (n=4). The proliferation of cells were tracked using CFSE and analyzed by FLOWJO V10 Beta software using fix ratio, fix CV and fix background from the un-stimulated cells.
The diabetogenic T cells are auto-antigen specific in nature. The pancreatic lymph nodes (PLN) of a diabetic mouse were isolated and the single cell suspension was stimulated with recombinant human GAD65 protein (4 ug/ml). In-vitro proliferation assay using carboxyfluorescein succinimidyl ester (CFSE) to track the T cell proliferation was performed. Pulse stimulation with human rGAD65 (4 ug/ml) for 4 days increased the CD4 and CD8 proliferation by 9-10 folds (FIG. 6C).

On to “human rGAD65: recombinant human Glutamic Acid Decarboxylase 65 protein used as autoantigen stimulus”, for which the “increase of CD4 and CD8 proliferation” value is listed as 9-10 folds.
